Data from US8269000B2, “Substituted pyrimidine and triazine compounds” (Gruenenthal GmbH, priority 2008, dated 2012).

Assays:
[1] = molecular target: T1, human B1R (Homo sapiens, UniProt P46663); assay: FLIPR Ca2+ functional study on bradykinin receptor 1 (hB1R CHO K1 cells); type: cell-based; details: % inhibition human B1R at 10 μM, read-out: % inh. (hum. B1R) 10 μM
T1 construct: expressed in transfected cells; host or cells: CHO K1 cells
T1 sequence (P46663 1-353): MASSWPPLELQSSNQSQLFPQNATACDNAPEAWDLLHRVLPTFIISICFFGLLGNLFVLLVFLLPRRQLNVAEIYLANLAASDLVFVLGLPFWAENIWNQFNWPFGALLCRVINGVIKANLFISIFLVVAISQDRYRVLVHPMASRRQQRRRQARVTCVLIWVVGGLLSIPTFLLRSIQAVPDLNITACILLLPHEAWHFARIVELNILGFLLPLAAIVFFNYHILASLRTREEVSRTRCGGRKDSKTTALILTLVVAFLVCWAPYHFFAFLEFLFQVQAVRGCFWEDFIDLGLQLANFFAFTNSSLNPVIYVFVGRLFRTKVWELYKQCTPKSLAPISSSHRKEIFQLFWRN
Outline: (§1)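 Antagonism was calculated as % of maximal inhibition of the Ca2+ rise triggered by agonist at EC80 (Lys-Des-Arg9-bradykinin for hB1R, Des-Arg9-bradykinin for rB1R), added 10-20 min after test compound (10 μM or serial dilutions for IC50) to Fluo-4-loaded transfected CHO K1 cells on FLIPR. Duplicates or triplicates, ≥2 independent runs.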

[2] = molecular target: T2, rat B1R (Rattus norvegicus, UniProt P97583); assay: FLIPR Ca2+ functional study on bradykinin receptor 1 (rB1R CHO K1 cells); type: cell-based; details: CHO-K1, % inhibition rat B1R at 10 μM, read-out: % inh. (rat B1R) 10 μM
T2 construct: expressed in transfected cells; host or cells: CHO K1 cells
T2 sequence (P97583 1-337): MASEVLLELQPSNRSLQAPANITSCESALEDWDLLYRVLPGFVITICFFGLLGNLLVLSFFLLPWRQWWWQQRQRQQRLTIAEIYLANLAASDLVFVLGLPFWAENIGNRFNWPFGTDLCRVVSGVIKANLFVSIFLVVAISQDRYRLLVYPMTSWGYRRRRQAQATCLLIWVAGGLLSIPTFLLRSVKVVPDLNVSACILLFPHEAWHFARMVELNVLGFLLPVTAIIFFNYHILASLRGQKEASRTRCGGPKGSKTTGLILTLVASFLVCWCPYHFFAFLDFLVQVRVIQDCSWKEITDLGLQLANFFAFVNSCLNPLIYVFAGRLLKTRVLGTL
Outline: as §1

| inhibition at 10 µM [1] [%] | inhibition at 10 µM [2] [%] | Compound |
| --- | --- | --- |
| 96 | 108 | COc1cc(C)c(S(=O)(=O)N(CCN(C)c2cc(N3CCC4(CCN(c5ccncc5)CC4)CC3)ncn2)C2CC2)c(C)c1 [Example I-003, N-cyclopropyl-4-methoxy-2,6-dimethyl-N-[2-[methyl-[6-(9-pyridin-4-yl-3,9-diazaspiro[5.5]undecan-3-yl)-pyrimidin-4-yl]-amino]-ethyl]-benzenesulfonic acid amide] |
| 85 | 102 | COc1cc(C)c(S(=O)(=O)N(CCN(C)c2ccnc(N3CCC4(CCN(c5ccncc5)CC4)CC3)n2)C2CC2)c(C)c1 [Example I-004, N-cyclopropyl-4-methoxy-2,6-dimethyl-N-[2-[methyl-[2-(9-pyridin-4-yl-3,9-diazaspiro[5.5]undecan-3-yl)-pyrimidin-4-yl]-amino]-ethyl]-benzenesulfonic acid amide] |
| 96 | 111 | COc1cc(C)c(S(=O)(=O)N(CCN(C)c2nccc(N3CCC4(CCN(c5ccncc5)CC4)CC3)n2)C2CC2)c(C)c1 [Example I-005, N-cyclopropyl-4-methoxy-2,6-dimethyl-N-[2-[methyl-[4-(9-pyridin-4-yl-3,9-diazaspiro[5.5]undecan-3-yl)-pyrimidin-2-yl]-amino]-ethyl]-benzenesulfonic acid amide] |
| 94 | 97 | COc1cc(C)c(S(=O)(=O)N(CCCc2cncc(N3CCC4(CCN(c5ccncc5)CC4)CC3)n2)C2CC2)c(C)c1 [Example I-006, N-cyclopropyl-4-methoxy-2,6-dimethyl-N-[3-[6-(9-pyridin-4-yl-3,9-diazaspiro[5.5]undecan-3-yl)-pyrazin-2-yl]-propyl]-benzenesulfonic acid amide] |
| 98 | 97 | COc1cc(C)c(S(=O)(=O)N(C)CCOc2nccc(N3CCN(C4CCN(C)CC4)CC3)n2)c(C)c1 [G_CC-001, 4-methoxy-N,2,6-trimethyl-N-[2-[[4-[4-(1-methyl-4-piperidinyl)-1-piperazinyl]-2-pyrimidinyl]oxy]ethyl]benzenesulfonamide] |
| 99 | 101 | COc1cc(C)c(S(=O)(=O)N2CCCCC2COc2nccc(N3CCN(C4CCN(C)CC4)CC3)n2)c(C)c1 (centres unmarked) [G_CC-002, 2-[[1-(4-methoxy-2,6-dimethylphenyl)sulfonyl-2-piperidinyl]methoxy]-4-[4-(1-methyl-4-piperidinyl)-1-piperazinyl]pyrimidine] |
| 100 | 102 | COc1cc(C)c(S(=O)(=O)N2CCCCC2COc2nccc(N3CCC(CCN4CCCC4)CC3)n2)c(C)c1 (centres unmarked) [G_CC-003, 2-[[1-(4-methoxy-2,6-dimethylphenyl)sulfonyl-2-piperidinyl]methoxy]-4-[4-(2-1-pyrrolidinylethyl)-1-piperidinyl]pyrimidine] |
| 100 | 100 | COc1cc(C)c(S(=O)(=O)N2CCCCC2COc2nccc(N(C)CCN3CCC(c4ccccc4)(N(C)C)CC3)n2)c(C)c1 (centres unmarked) [G_CC-004, N-[2-(4-dimethylamino-4-phenyl-1-piperidinyl)ethyl]-2-[[1-(4-methoxy-2,6-dimethylphenyl)sulfonyl-2-piperidinyl]methoxy]-N-methyl-4-pyrimidineamine] |
| 91 | 96 | COc1cc(C)c(S(=O)(=O)N2CCCCC2COc2nccc(N3CCC(N4CCN(C)CC4)CC3)n2)c(C)c1 (centres unmarked) [G_CC-011, 2-[[1-(4-methoxy-2,6-dimethylphenyl)sulfonyl-2-piperidinyl]methoxy]-4-[4-(4-methyl-1-piperazinyl)-1-piperidinyl]pyrimidine] |
| 100 | 102 | COc1cc(C)c(S(=O)(=O)N2CCCCC2COc2nccc(N3CCN(c4ccncc4)CC3)n2)c(C)c1 (centres unmarked) [G_CC-013, 2-[[1-(4-methoxy-2,6-dimethylphenyl)sulfonyl-2-piperidinyl]methoxy]-4-[4-(4-pyridyl)-1-piperazinyl]pyrimidine] |
